Reference: patent publication US10301308B2, “Azetidine derivatives for tau imaging” (Eli Lilly and Company, priority 2015, dated 2019)

Tests used:
[1] = target: PHF (tau from Alzheimer's disease donors) (Homo sapiens, UniProt P10636); assay: Competition radioligand binding versus [18F]AV-1451 on PHF (Ki determination)
Source text: Purified, soluble PHF is isolated from AD brain tissue using a protocol modified from the procedure described by Jicha, et al. (G. A. Jicha, A. O'Donnell, C. Weaver (1999) “Hierarchical phosphorylation of recombinant tau by the paired-helical filament-associated protein kinase is dependent on cyclic AMP-dependent protein kinase” J Neurochem. 72(1):214). Briefly, AD cortex is homogenized using a handheld Kinematica Polytron, followed by high pressure batch—gas expansion using a Parr Cell disruption bomb. Crude homogenate is centrifuged at 28 kg to pellet cell debris. Soluble PHF is isolated from the supernatant by affinity chromatography over an Affigel-10 column on which the tau antibody MCI, which recognizes a pathological conformation of tau, has been immobilized (G. A. Jicha, R. Bowser, I. G. Kazam (1997), “Alz-50 and MC-1, a new monoclonal antibody raised to paired helical filaments, recognize conformational epitopes on recombinant tau” J Neurosci Res. 48(2): 12.)
The IC50 (i.e. the molar concentration of competing ligand which reduces the specific binding of a radioligand by 50%) for the unlabeled compound is determined by competition radioligand binding, in which the binding of [18F]AV-1451 to PHF is competed with unlabeled compound at various concentrations. […]

[2] = Mouse PET/CT time activity curves; format: in vivo, CD-1 wild type mice; conditions: mouse PET/CT time activity curves
Protocol: Dynamic Micro-Positron Emission Tomography (mPET) images are obtained from CD-1 wild type mice using 3-(3-[18F]-fluoroazetidin-1-yl)-8-methylbenzo[4,5]imidazo[1,2-a]pyridine. Micro-Computed Tomography (mCT) of each subject is used as anatomical reference for image analysis. Biodistribution of the tracer in brain, muscle, bone, liver, and kidney is assessed by generating Time Activity Curves (TAC) using the fused mPET/mCT images. An INVEON multimodality scanner (Siemens, Germany) is used for mPET/mCT. All animal work is performed in accordance with the University of Sciences Institutional Animal Care & Use Committee-approved procedures.
Animals are anesthetized with 3% isoflurane/97% oxygen and are placed on the scanner bed. A short high-resolution CT scan is first performed for anatomical registration, followed by a 120-minute PET scan. During the PET scan a water heating system is placed underneath the bed to help maintain the body temperature. Within 3 minutes after the beginning of the PET acquisition, the [18F]-labeled compound 3-(3-[18F]-fluoroazetidin-1-yl)-8-methylbenzo[4,5]imidazo[1,2-a]pyridine is administered to the animals via tail vein injection (250 uCi in a total volume of 200 uL saline). A PET image is generated for each minute of the acquisition time. Uptake of the tracer is obtained by visually drawing regions of interest based on the fused PET/CT images, and the corresponding activity values are determined using the INVEON Research Workplace software (Siemens, Germany). All values are represented as percent injected dose per gram (% ID/g).
The mouse PET/CT time activity curves of 3-(4-(2-[18F]-fluoroethyl)piperidin-1-yl)-8-methoxybenzo[4,5]imidazo[1,2-a]pyridine (T821) (See FIG. 9) and of 3-(4-[18F]-fluoropiperidin-1-yl)-8-methoxybenzo[4,5]imidazo[1,2-a]pyridine (T798) (See FIG. 10) are obtained as described in Assay Example 7 (T821 and T798 are recited in US2011/0182812). […] Therefore, when imaging with T821 and/or T798, the undesirable non-tau PET signals from the skull bones could interfere with desired tau signals from the brain cortex. Thus, in addition to the lack of selectivity for T821 and T798, these compounds would further represent poor candidates for human brain tau PET tracers because of the interfering radioactivity signal from bone. […] The advantageous properties of Compound 8 are useful to provide enhanced tau PET imaging in humans. This combination of critical properties was not known and could not have been predicted from existing tau imaging compounds.

[3] = test system: native tau aggregates vs native β-amyloid aggregates in human brain sections; assay: Autoradiography selectivity towards tau versus β amyloid in AD human brain tissue; format: binding; conditions: for selectivity ratio for Tau:Aβ: 5 Tau+Aβ+ and 2 Tau-Aβ+ brain specimens; for grey matter to white matter (GM/WM) signal ratio: autoradiography, Tau+Aβ+ brain specimens; for binding sites observed in autoradiography: human brain sections Groups A, B, C
Source text: Based on the anti-tau and anti-amyloid immunostaining results of brain sections, three groups of human brain sections are selected for autoradiography experiments to determine the native tau-binding selectivity of 3-(3-[18F]-fluoroazetidin-1-yl)-8-methylbenzo[4,5]imidazo[1,2-a]pyridine. Group A are tau-rich AD brain slices (labeled as Tau+Aβ+), Group B are tau-poor AD brain slices (marked as Tau-Aβ+), and Group C are Tau-Aβ− normal brain slices. […] The human AD brain sections in Group B are #33562, #32656, #33998, #35682, and #33563. The normal human brain sections in group C are #29092 and #32566. Tissue slices from the same donors are used to calculate selectivity for all three compounds for testing according to Assay Example 5. Autoradiography is performed for each of these three groups of brains on adjacent 10 μm sections with the amyloid tracer [18F]W372 to quantify the β-amyloid burden. [18F]W372 is a selective amyloid binding tracer discovered by Siemens and evaluated under IND 105173. Sections are covered with 0.5 ml of 3-(3-[18F]-fluoroazetidin-1-yl)-8-methylbenzo[4,5]imidazo[1,2-a]pyridine (in 2.5:2.5:95 DMSO:EtOH:1×PBS, about 20 μCi/slide) and incubated for 1.5 hrs. Then successive washing cycles (1 min PBS, 2 min 30% EtOH/PBS, 2 min 70% EtOH/PBS, 1 min PBS) are employed to remove any unbound tracer. The sections are air dried, placed on a phosphorimaging plate (Fuji IP plate), and exposed overnight. The IP plate is read using a GE Healthcare Life Sciences Typhoon FLA 7000 Phosphorimager. The signal intensity of the grey matter is measured using Fujifilm Multi Gauge software. After subtracting the background signal (signal in the cortex region of Group C), the signal of individual sections of Group A and B are normalized with corresponding signal from autoradiography of the respective adjacent sections with [18F]W372. The calculations are based on Group B brain sections #32656 and #33998, which have undetectable tau pathology by immunohistochemistry. The normalized signal for 3-(3-[18F]-fluoroazetidin-1-yl)-8-methylbenzo[4,5]imidazo[1,2-a]pyridine in Group B brain sections is the relative signal level of 3-(3-[18F]-fluoroazetidin-1-yl)-8-methylbenzo[4,5]imidazo[1,2-a]pyridine to [F-18]W372 resulting from binding to native β-amyloid aggregates. The binding level of 3-(3-[18F]-fluoroazetidin-1-yl)-8-methylbenzo[4,5]imidazo[1,2-a]pyridine to native tau-aggregates in Group A sections is estimated by subtracting the amount of the total signal attributable to binding to 3-amyloid (calculated by multiplying the total signal from [18F]W372 binding to β-amyloid in the adjacent section by the relative signal of 3-(3-[18F]-fluoroazetidin-1-yl)-8-methylbenzo[4,5]imidazo[1,2-a]pyridine to [18F]W372 determined from the Group B sections). The resulting difference is then divided by the signal attributable to binding to β-amyloid to estimate the selectivity of 3-(3-[18F]-fluoroazetidin-1-yl)-8-methylbenzo[4,5]imidazo[1,2-a]pyridine. […] The selectivity of 3-(3-[18F]-fluoroazetidin-1-yl)-8-methylbenzo[4,5]imidazo[1,2-a]pyridine binding to native tau aggregates vs. binding native β-amyloid aggregates is reflected by the ratio of Group A (Tau+Aβ+) signal to the signal of the brain sections #32656 and #33998.

[4] = Clinical PET kinetic profile: brain uptake, washout, metabolism; format: in vivo, human; conditions: human subjects, dynamic PET
Protocol: (§1) Clinical evaluation of 3-(3-[18F]-Fluoroazetidin-1-yl)-8-methylbenzo[4,5]imidazo[1,2-a]pyridine (Compound 8) as a PET radioligand for imaging tau protein deposition in patients with AD or other neurodegenerative disorders is conducted in healthy volunteers. AD patients, or Chronic Traumatic Encephalopathy (CTE) subjects, by completion of one or more PET scans with Compound 8. Dynamic PET imaging is acquired on a Siemens ECAT EXACT HR+ over 150 minutes following Compound 8 or [18F]AV-1451 injection (0-60 and 90-150 minute imaging segments). Compound 8 or [18F]AV-1451 scans are acquired similarly in two imaging sessions. A brain MRI is also obtained. PET and MRI images are aligned and normalized, and ATLAS-based volumes of interest (VOI) are applied to the dynamic PET series. Compound 8 or [18F]AV-1451 are evaluated in terms of kinetic profile as well as target region to cerebellum standardized uptake value ratio (SUVr between 100-120 min) between healthy volunteers and AD or CTE subjects.

tau protein = assay: Clinical PET imaging of tau protein in the brain (SUVr); format: in vivo, human; conditions: AD subjects vs healthy controls
Protocol: as §1

Sequence of PHF (tau from Alzheimer's disease donors) (P10636 623-695 limits assumed): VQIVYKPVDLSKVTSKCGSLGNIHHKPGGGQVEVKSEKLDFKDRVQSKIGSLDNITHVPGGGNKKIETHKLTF

| Ki ([1]; tau obtained from donors with Alzheimer's disease, from IC50 by Cheng-Prusoff) | Kd ([1]; value used in the Cheng-Prusoff equation, read-out: Kd, dissociation constant of the radioligand) | peak brain uptake [4] | SMILES | bone uptake of radioactivity [2] | selectivity ratio for Tau:Aβ [3] | grey matter to white matter (GM/WM) signal ratio [3] | binding sites observed in autoradiography [3] | uptake in cortical brain regions, AD subjects compared with healthy controls (tau protein) |
| --- | --- | --- | --- | --- | --- | --- | --- | --- |
| 0.6 nM | – | – | Cc1ccc2nc3cc(N4CC(F)C4)ccn3c2c1 [Compound 4, 3-(3-fluoroazetidin-1-yl)-8-methylbenzo[4,5]imidazo[1,2-a]pyridine] | – | – | – | – | – |
| – | – | – | COc1ccc2nc3cc(N4CCC([18F])CC4)ccn3c2c1 [Compound T798, 3-(4-[18F]-fluoropiperidin-1-yl)-8-methoxybenzo[4,5]imidazol[1,2-a]pyridine, reference compound] | bone uptake of radioactivity increases with time | approximately 8.4±1.7 | approximately 18.0±3.2 | binds to tau, amyloid, and unidentified binding sites in normal human brain | – |
| – | – | – | COc1ccc2nc3cc(N4CCC(CC[18F])CC4)ccn3c2c1 [Compound T821, 3-(4-(2-[18F]-fluoroethyl)piperidin-1-yl)-8-methoxybenzo[4,5]imidazo[1,2-a]pyridine, reference compound] | bone uptake of radioactivity increases with time | approximately 2.22±0.45 | approximately 11.7±1.2 | binds to tau, amyloid, and unidentified binding sites in normal human brain | – |
| – | 0.57 nM | ~6 SUV | [18F]c1ccc(-c2ccc3c(c2)[nH]c2ccncc23)cn1 [[18F]AV-1451, reference compound] | – | – | – | – | Higher uptake |
